The subject of this assay is Jurkat. Description: Inhibition of TNF-alpha-induced necroptosis in FADD-deficient Jurkat T cells. The assay is classed as functional, cell-based, Homo sapiens. Set-up: Activity: concentration or dose not given beside the values. The following applies: for EC50: Jurkat.

We go through 56 molecules from ChEMBL document CHEMBL1139128, “Structure-activity relationship analysis of a novel necroptosis inhibitor, Necrostatin-5” (Bioorg Med Chem Lett, 2007).

Each structure is given as a SMILES string. Activity calls are given as the source filed them. No rule for the calls is given here.

In turn, `COc1ccc(-n2c(SC)nc3sc4c(c3c2=O)CCCC4)cc1` yielded an Activity of 71%. Under “Homo sapiens”, the concentration giving a half-maximal response (EC50) (as a rule, the concentration needed to bring the measured effect to its halfway point) came out at 240 nM. Consider `Cc1sc2nc(SCC#N)n(-c3ccc(N(C)C)cc3)c(=O)c2c1C`, for which the outcome (Homo sapiens) was inactive. `N#CCSc1nc2sc3c(c2c(=O)n1-c1ccc(Cl)cc1)CCCC3` had an Activity of 55%. Further, the EC50 (Homo sapiens) amounted to 8500 nM. Turning to `COc1ccc(-n2c(S(C)(=O)=O)nc3sc4c(c3c2=O)CCCC4)cc1`, the outcome (Homo sapiens) was inactive. As for `COc1ccc(-n2c(SCCC#N)nc3sc4c(c3c2=O)CCCC4)cc1`, the Activity was 70%. In addition, the EC50 (Homo sapiens) was determined as 5280 nM. `CSc1nc2sc3ccccc3c2c(=O)n1-c1ccc2c(c1)OCO2`: for the setting “Homo sapiens”, the outcome was inactive. Same read-out and setting: the result for `CCCCSc1nc2sc3c(c2c(=O)n1-c1ccc(OC)cc1)CCC3` reads “inactive”. Still for that read-out and setting: in the case of `N#CCSc1nc2sc3c(c2c(=O)n1-c1ccc(F)c(F)c1)CCCC3` it was “inactive”; in that of `CSc1nc2sc3c(c2c(=O)n1-c1ccc(OC(F)(F)F)cc1)CCCC3`, “inactive”. The same measure, in the same setting: in the case of `COc1ccc(-n2c(SC(=O)c3ccccc3)nc3sc4c(c3c2=O)CCCC4)cc1` it was “inactive”; in that of `COc1ccc(-n2c(SC)nc3sc4c(c3c2=O)CCCCC4)cc1`, “inactive”.

`O=c1c2c3c(sc2nc(SCc2ccccc2)n1-c1ccccc1)CCCC3`: the outcome (Homo sapiens) was inactive.

With `CCCCCCSc1nc2sc3c(c2c(=O)n1-c1ccc(OC)cc1)CCCC3`, the result (Homo sapiens) was inactive.

Take `N#CCSc1nc2sc3c(c2c(=O)n1-c1ccc(OCc2ccccc2)cc1)CCCC3`: the outcome (Homo sapiens) was inactive. Still for that read-out and setting: the result for `C#CCSc1nc2sccc2c(=O)n1-c1ccc(OC)cc1` reads “inactive”; that for `CCCCSc1nc2sc3c(c2c(=O)n1-c1ccc(OC)cc1)CCCC3`, “inactive”. Same read-out and setting: the result for `CCCSc1nc2sc3c(c2c(=O)n1-c1ccc(OC)cc1)CCC3` reads “inactive”. As for `COc1ccc(-n2c(SCC#N)nc3sc(C)c(C)c3c2=O)cc1`, the Activity was 100%. Also, for the setting “Homo sapiens”, the EC50 was found to be 450 nM. Turning to `COc1ccc(-n2c(SC)nc3sc4c(c3c2=O)CCCC4)c(OC)c1`, the result (Homo sapiens) was inactive. Consider `COc1ccc(-n2c(SCC(=O)O)nc3sc4c(c3c2=O)CCCC4)cc1`, for which the outcome (Homo sapiens) was inactive.

Consider `N#CCSc1nc2sc3c(c2c(=O)n1-c1ccc(OC(F)(F)F)cc1)CCC3`, for which the Activity is given as 70%. The molecule further came in with an EC50 (Homo sapiens) of 3700 nM. In the same order, the values of `Cc1ccc(-n2c(SCC#N)nc3sc4c(c3c2=O)CCCC4)cc1` are 48.6% and 1800 nM. In the same order, the values of `COc1ccc(-n2c(SCC#N)nc3sc4c(c3c2=O)CCC4)cc1` are 100% and 450 nM.

Turning to `N#CCSc1nc2sc3c(c2c(=O)n1-c1ccc(OC(F)(F)F)cc1)CCCC3`, the outcome (Homo sapiens) was inactive. The same measure, in the same setting: the result for `CCCSc1nc2sc3c(c2c(=O)n1-c1ccc(OC)cc1)CCCC3` reads “inactive”; that for `C=CCSc1nc2sc3c(c2c(=O)n1-c1ccc(OC)cc1)CCCC3`, “inactive”; that for `COc1ccc(-n2c(SCC(=O)Nc3ccccc3C(F)(F)F)nc3sc4c(c3c2=O)CCCC4)cc1`, “inactive”. The molecule `CSc1ccc(-n2c(SCC#N)nc3sc4c(c3c2=O)CCCC4)cc1` returned an Activity of 70%. The molecule also yielded a 50% effective concentration (EC50) (Homo sapiens) of 2330 nM. In the same order, the values of `COc1ccc(-n2c(SCC#N)nc3sc4c(c3c2=O)CCCC4)cc1` are 100% and 240 nM. Regarding `CCN1CCc2sc3nc(SC)n(-c4ccc(OC)cc4)c(=O)c3c2C1`, where the note is “Homo sapiens”, the outcome was inactive. `CCOc1ccc(-n2c(SCC#N)nc3sc4c(c3c2=O)CCCC4)cc1` returned an Activity of 83.8%. It took 550 nM to reach a half-maximal effect (Homo sapiens) (EC50). In the same order, the values of `C#CCSc1nc2sc3c(c2c(=O)n1-c1ccc(OC)cc1)CCC3` are 63.4% and 2490 nM. `Cc1sc2nc(SCC#N)n(-c3ccc4c(c3)OCCO4)c(=O)c2c1C` came in with an Activity of 100%. Besides, the EC50 (Homo sapiens) was determined as 250 nM. Consider `COc1ccc(-n2c(SC)nc3sc4c(c3c2=O)CC(C)CC4)cc1OC` (centres undefined), for which, where the note is “Homo sapiens”, the outcome was inactive. On the same count and under the same terms, the result for `CCSc1nc2sc3c(c2c(=O)n1-c1ccc(OC)cc1)CCCC3` reads “inactive”; that for `COc1ccc(-n2c(SCC#N)nc3sc4c(c3c2=O)CC(C)CC4)cc1` (centres undefined), “inactive”; that for `COc1ccc(-n2c(SC[N+](=O)[O-])nc3sc4c(c3c2=O)CCC4)cc1`, “inactive”. On the same count and under the same terms, in the case of `CCCc1sc2nc(SCC)n(-c3ccc(OC)cc3)c(=O)c2c1C` it was “inactive”; in that of `Cc1sc2nc(SCC#N)n(-c3ccc(OCc4ccccc4)cc3)c(=O)c2c1C`, “inactive”; in that of `CCc1c(C)sc2nc(SCCO)n(-c3ccc4c(c3)OCO4)c(=O)c12`, “inactive”. For the molecule `COc1ccc(-n2c(SC)nc3sc4ccccc4c3c2=O)cc1`, the Activity was 77%. A half-maximal effect (Homo sapiens) (EC50) was put at 240 nM. In the same order, the values of `N#CCSc1nc2sc3c(c2c(=O)n1-c1cccc(Cl)c1)CCCC3` are 66.9% and 5100 nM. On the same counts, the results for `CSc1nc2sc3c(c2c(=O)n1-c1ccc(C)c(C)c1)CCCC3` are 38% and 16700 nM. In the case of `C=CCSc1nc2sc3c(c2c(=O)n1-c1ccc(OC)cc1)CCC3`, the outcome (Homo sapiens) was inactive. Turning to `Cc1ccc(-n2c(SCC#N)nc3sc4c(c3c2=O)CCCC4)cc1C`, the Activity was found to be 45%. In addition, under “Homo sapiens”, the concentration giving a half-maximal response (EC50) is 16700 nM. Regarding `COc1ccc(-n2c(SCC#N)nc3sccc3c2=O)cc1`, the outcome (Homo sapiens) was inactive. On the same count and under the same terms, the result for `COc1ccc(-n2c([S+](C)[O-])nc3sc4c(c3c2=O)CCCC4)cc1` (centres undefined) reads “inactive”; that for `COc1ccc(-n2c(SCC(C)=O)nc3sc4c(c3c2=O)CCCC4)cc1`, “inactive”; that for `CCc1sc2nc(SC)n(-c3ccc(F)cc3)c(=O)c2c1C`, “inactive”. On the same count and under the same terms, in the case of `CCc1c(C)sc2nc(SC)n(-c3ccc4c(c3)OCO4)c(=O)c12` it was “inactive”; in that of `COc1ccc(-n2c(SCc3ccc([N+](=O)[O-])cc3)nc3sc4c(c3c2=O)CCC4)cc1`, “inactive”. In the case of `CCOc1ccc(-n2c(SC)nc3sc4ccccc4c3c2=O)cc1`, under “Homo sapiens”, the result was inactive. Still for that read-out and setting: in the case of `CCSc1nc2sc3c(c2c(=O)n1-c1ccccc1)CCCCC3` it was “inactive”. `N#CCSc1nc2sc3c(c2c(=O)n1-c1ccc2c(c1)OCCO2)CCCC3` had an Activity of 100%. Where the note is “Homo sapiens”, this molecule yielded an EC50 of 220 nM. Turning to `CCCc1sc2nc(SCC#N)n(-c3ccc(OC)cc3)c(=O)c2c1C`, under “Homo sapiens”, the outcome was inactive. Regarding `C#CCSc1nc2sc3c(c2c(=O)n1-c1ccc(OC)cc1)CCCC3`, the Activity turned out to be 80.7%. Under “Homo sapiens”, the EC50 is 6080 nM.
